In patent publication US8691804B2 (Evotec AG, priority 2008, dated 2014):

The compounds below were run against T1, human H3 receptors (Homo sapiens, UniProt Q9Y5N1) (assay: cAMP quantification assay for human H3 receptor testing). Conditions: CHO-K1 cells expressing human H3 receptors; inhibition of agonist-induced decrease of cAMP; 100 nM histamine, 10 μM forskolin; read-out: Potency range (IC50 values).
T1 construct: host or cells: CHO-K1
Type: cell-based
Protocol: CHO—K1 cell line expressing human H3 receptors were purchased from Euroscreen (Gosselies, Belgium, Cat. no.: ES-392-C)
Human H3 receptor-expressing cell-lines were grown in Ham's F12 [Sigma, Cat. no. N6658], supplemented with 10% FBS [Sigma, Cat. no. F9665], 400 μg/ml G418 [Sigma, Cat. no. N1876] and 250 μg/ml Zeocin [Invitrogen, Cat. no. 46-0509]) according to the protocol provided by Euroscreen.
The assay measures the ability of test compounds to inhibit Histamine receptor agonist-induced decrease of intracellular free cAMP (receptor is Gi coupled).
Specifically, a cAMP quantification assay system from DiscoveRx (cAMP XS+; Cat. no. 90-0075) was used.
For the cAMP assay, confluent cells were detached from the culture vessels with 1× trypsin-EDTA solution (Sigma), and seeded into 384-well Costar plates (white, clear bottom, Cat. no. 3707) at a density of 10,000 cells per well. Cells were seeded in a volume of 50 μl in medium without antibiotics and incubated overnight in a humidified atmosphere with 5% CO2 at 37° C. The cAMP assay was performed according to the protocol provided by DiscoveRx.
The cell culture medium was removed and the cells washed once with PBS (50 μl per well). The plates were emptied by inversion and 7.5 μl/well of compound in PBS (containing 1 mM IBMX and 0.03% BSA) were added and incubated for 30 min at 37° C.
Subsequent 7.5 μl/well specific agonist solution was added and the plates for another 30 min incubated at 37° C.
hH3:100 nM histamine, 10 μM forskolin in PBS (containing 1 mM IBMX and 0.03% BSA)
After the incubation with the agonist, 5 μl/well cAMP XS antibody solution was added followed by 20 μl/well Gal/EII/Lysis (1:5:19)+ED (1:1). The plates were incubated for one hour at room temperature and afterwards 20 μl/well EA reagent was added. The luminescence was developed for approximately three hours at room temperature and the plates were read out using a ‘BMG Novostar’ plate reader.
Test compounds were assayed at 8 concentrations in triplicate. Serial 10-fold dilutions in 100% DMSO were made at a 100-times higher concentration than the final concentration and then diluted with a 2 step protocol in assay buffer to reach the required assay concentrations and 1% DMSO. […]

T1 sequence (Q9Y5N1 whole entry): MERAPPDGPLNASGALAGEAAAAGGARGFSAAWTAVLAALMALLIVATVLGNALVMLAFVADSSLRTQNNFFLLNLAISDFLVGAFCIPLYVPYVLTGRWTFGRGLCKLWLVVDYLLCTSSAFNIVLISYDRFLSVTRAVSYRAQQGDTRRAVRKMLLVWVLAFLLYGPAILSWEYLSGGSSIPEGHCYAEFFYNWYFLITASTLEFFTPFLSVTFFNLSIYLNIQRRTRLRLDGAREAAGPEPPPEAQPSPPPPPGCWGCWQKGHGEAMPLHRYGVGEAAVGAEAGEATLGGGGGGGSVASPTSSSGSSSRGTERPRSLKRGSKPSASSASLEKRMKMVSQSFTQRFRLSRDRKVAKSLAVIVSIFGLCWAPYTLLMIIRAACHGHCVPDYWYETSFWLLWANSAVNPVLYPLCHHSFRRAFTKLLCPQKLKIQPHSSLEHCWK

IC50, < 100 nM:
CNC(=O)c1ccc(OC2CN(C(=O)N3CCCN(C4CCC4)CC3)C2)c(C)c1 [Example 34, 4-({1-[(4-cyclobutyl-1,4-diazepan-1-yl)carbonyl]azetidin-3-yl}oxy)-N,3-dimethylbenzamide]
O=C(NCC1CC1)c1ccc(OC2CN(C(=O)N3CCCN(C4CCC4)CC3)C2)cn1 [Example 35, 5-({1-[(4-cyclobutyl-1,4-diazepan-1-yl)carbonyl]azetidin-3-yl}oxy)-N-(cyclopropylmethyl)pyridine-2-carboxamide]
CNC(=O)c1ccc(OC2CN(C(=O)N3CCN(C4CCC4)CC3)C2)cn1 [Example 37, 5-({1-[(4-cyclobutylpiperazin-1-yl)carbonyl]azetidin-3-yl}oxy)-N-methylpyridine-2-carboxamide]
O=C(N1CCN(C2CCC2)CC1)N1CC(Oc2ccccc2)C1 [Example 38, 1-cyclobutyl-4-[(3-phenoxyazetidin-1-yl)carbonyl]piperazine]
O=C(N1CCN(C2CCC2)CC1)N1CC(Oc2ccc(C(F)(F)F)cc2)C1 [Example 39, 1-cyclobutyl-4-({3-[4-(trifluoromethyl)phenoxy]azetidin-1-yl}carbonyl)piperazine]
N#Cc1ccc(OC2CN(C(=O)N3CCN(C4CCC4)CC3)C2)cc1 [Example 40, 4-({1-[(4-cyclobutylpiperazin-1-yl)carbonyl]azetidin-3-yl}oxy)benzonitrile]
O=C(N1CCN(C2CCC2)CC1)N1CC(Oc2ccc(F)cc2)C1 [Example 41, 1-cyclobutyl-4-{[3-(4-fluorophenoxy)azetidin-1-yl]carbonyl}piperazine]
O=C(N1CCCN(C2CCC2)CC1)N1CC(Oc2ccc3c(n2)CCN(C2CCC2)C3)C1 [Example 42, 6-cyclobutyl-2-({1-[(4-cyclobutyl-1,4-diazepan-1-yl)carbonyl]azetidin-3-yl}oxy)-5,6,7,8-tetrahydro-1,6-naphthyridine]
CNC(=O)c1ccc(OC2CN(C(=O)N3CCCN(C4CCC4)CC3)C2)c(F)c1 [Example 43, 4-({1-[(4-cyclobutyl-1,4-diazepan-1-yl)carbonyl]azetidin-3-yl}oxy)-3-fluoro-N-methylbenzamide]
O=C(N1CCCN(C2CCC2)CC1)N1CC(Oc2ccc(I)cc2)C1 [Example 44, 1-cyclobutyl-4-{[3-(4-iodophenoxy)azetidin-1-yl]carbonyl}-1,4-diazepane]
O=C(N1CCCN(C2CCC2)CC1)N1CC(Oc2cncc(F)c2)C1 [Example 45, 1-cyclobutyl-4-({3-[(5-fluoropyridin-3-yl)oxy]azetidin-1-yl}carbonyl)-1,4-diazepane]
O=C(N1CCCN(C2CCC2)CC1)N1CC(Oc2ccc(Cl)nc2)C1 [Example 46, 1-({3-[(6-chloropyridin-3-yl)oxy]azetidin-1-yl}carbonyl)-4-cyclobutyl-1,4-diazepane]
CNC(=O)c1ccc(OC2CN(C(=O)N3CCCN(C4CCC4)CC3)C2)cc1F [Example 47, 4-({1-[(4-cyclobutyl-1,4-diazepan-1-yl)carbonyl]azetidin-3-yl}oxy)-2-fluoro-N-methylbenzamide]
O=C(N1CCCN(C2CCC2)CC1)N1CC(Oc2cnccc2Cl)C1 [Example 48, 1-({3-[(4-chloropyridin-3-yl)oxy]azetidin-1-yl}carbonyl)-4-cyclobutyl-1,4-diazepane]
O=C(N1CCCN(C2CCC2)CC1)N1CC(Oc2ccncc2F)C1 [Example 49, 1-cyclobutyl-4-({3-[(3-fluoropyridin-4-yl)oxy]azetidin-1-yl}carbonyl)-1,4-diazepane]
COc1nccc(OC2CN(C(=O)N3CCCN(C4CCC4)CC3)C2)n1 [Example 52, 1-cyclobutyl-4-({3-[(2-methoxypyrimidin-4-yl)oxy]azetidin-1-yl}carbonyl)-1,4-diazepane]
CC(C)(O)c1cc(OC2CN(C(=O)N3CCCN(C4CCC4)CC3)C2)ccn1 [Example 53, 2-[4-({1-[(4-cyclobutyl-1,4-diazepan-1-yl)carbonyl]azetidin-3-yl}oxy)pyridin-2-yl]propan-2-ol]
CCc1cc(OC2CN(C(=O)N3CCCN(C4CCC4)CC3)C2)ccn1 [Example 54, 1-cyclobutyl-4-({3-[(2-ethylpyridin-4-yl)oxy]azetidin-1-yl}carbonyl)-1,4-diazepane]
CC(C)c1cc(OC2CN(C(=O)N3CCCN(C4CCC4)CC3)C2)ccn1 [Example 55, 1-cyclobutyl-4-[(3-{[2-(1-methylethyl)pyridin-4-yl]oxy}azetidin-1-yl)carbonyl]-1,4-diazepane]
COc1cc(OC2CN(C(=O)N3CCCN(C4CCC4)CC3)C2)ccn1 [Example 56, 1-cyclobutyl-4-({3-[(2-methoxypyridin-4-yl)oxy]azetidin-1-yl}carbonyl)-1,4-diazepane]
Nc1cc(OC2CN(C(=O)N3CCCN(C4CCC4)CC3)C2)ccn1 [Example 57, 4-({1-[(4-cyclobutyl-1,4-diazepan-1-yl)carbonyl]azetidin-3-yl}oxy)pyridin-2-amine]
CN(C)c1cc(OC2CN(C(=O)N3CCCN(C4CCC4)CC3)C2)ccn1 [Example 58, 4-({1-[(4-cyclobutyl-1,4-diazepan-1-yl)carbonyl]azetidin-3-yl}oxy)-N,N-dimethylpyridin-2-amine]
Cc1ccc(OC2CN(C(=O)N3CCCN(C4CCC4)CC3)C2)nn1 [Example 59, 1-cyclobutyl-4-({3-[(6-methylpyridazin-3-yl)oxy]azetidin-1-yl}carbonyl)-1,4-diazepane]
CC(C)(O)c1ccc(OC2CN(C(=O)N3CCCN(C4CCC4)CC3)C2)cc1F [Example 60, 2-[4-({1-[(4-cyclobutyl-1,4-diazepan-1-yl)carbonyl]azetidin-3-yl}oxy)-2-fluorophenyl]propan-2-ol]
Cc1cnc(OC2CN(C(=O)N3CCCN(C4CCC4)CC3)C2)c(C)n1 [Example 61, 1-cyclobutyl-4-({3-[(3,5-dimethylpyrazin-2-yl)oxy]azetidin-1-yl}carbonyl)-1,4-diazepane]
Cc1cncc(OC2CN(C(=O)N3CCCN(C4CCC4)CC3)C2)n1 [Example 63, 1-cyclobutyl-4-({3-[(6-methylpyrazin-2-yl)oxy]azetidin-1-yl}carbonyl)-1,4-diazepane]
Cc1cnc(C)c(OC2CN(C(=O)N3CCCN(C4CCC4)CC3)C2)n1 [Example 64, 1-cyclobutyl-4-({3-[(3,6-dimethylpyrazin-2-yl)oxy]azetidin-1-yl}carbonyl)-1,4-diazepane]
Cc1nccc(OC2CN(C(=O)N3CCCN(C4CCC4)CC3)C2)n1 [Example 65, 1-cyclobutyl-4-({3-[(2-methylpyrimidin-4-yl)oxy]azetidin-1-yl}carbonyl)-1,4-diazepane]
COc1cncc(OC2CN(C(=O)N3CCCN(C4CCC4)CC3)C2)n1 [Example 66, 1-cyclobutyl-4-({3-[(6-methoxypyrazin-2-yl)oxy]azetidin-1-yl}carbonyl)-1,4-diazepane]
O=C(N1CCCN(C2CCC2)CC1)N1CC(Oc2ccncc2Cl)C1 [Example 67]
O=C(N1CCCN(C2CCC2)CC1)N1CC(Oc2ccnc3ccccc23)C1 [Example 68, 4-({1-[(4-cyclobutyl-1,4-diazepan-1-yl)carbonyl]azetidin-3-yl}oxy)quinoline]
Cc1cc(OC2CN(C(=O)N3CCCN(C4CCC4)CC3)C2)cc(C)n1 [Example 69, 1-cyclobutyl-4-({3-[(2,6-dimethylpyridin-4-yl)oxy]azetidin-1-yl}carbonyl)-1,4-diazepane]
O=C(N1CCCN(C2CCC2)CC1)N1CC(Oc2cccn3ccnc23)C1 [Example 70, 8-({1-[(4-cyclobutyl-1,4-diazepan-1-yl)carbonyl]azetidin-3-yl}oxy)imidazo[1,2-a]pyridine]
O=C(N1CCCN(C2CCC2)CC1)N1CC(Oc2ccn3ccnc3c2)C1 [Example 71, 7-({1-[(4-cyclobutyl-1,4-diazepan-1-yl)carbonyl]azetidin-3-yl}oxy)imidazo[1,2-a]pyridine]
